We go through eleven compounds from ChEMBL document CHEMBL1201862, “PubChem BioAssay data set” (2004).

Test systems include SNB-75; OVCAR-8; SNB-19; HCT-116; SW-620; PC-3; HL-60; MOLT-4; HT-29; A549; U-251; SF-295; OVCAR-3; EKVX; OVCAR-4; MDA-MB-435; IGROV-1; UACC-257; SK-MEL-2; LOX IMVI.
Common to all, as to assay: DTP human tumour cell line panel, 48 h

The structures appear in SMILES notation.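 Results reflect a 48-hour exposure of cells in 96-well plates to compound at five concentrations. GI50: concentration for 50% inhibition of growth.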 The source made the active and inactive calls. Rule as the data show it: active = GI50 up to about 1.1 µM and inactive = higher. A value given as a limit tells only on which side of the number the result lay.

Consider `CC(C)(Br)C(Br)CCC1(C(Br)CBr)CO1` (stereo unspecified), for which the GI50 in the experiment on SNB-75, in the experiment with OVCAR-8, in the experiment with SNB-19, in the experiment on HCT-116, with SW-620 and in the experiment on PC-3 was > 10 µM (inactive) in each case. Further, the GI50 in the experiment on HL-60, in the experiment with MOLT-4, in the experiment with HT-29, in the experiment on A549, in the experiment with U-251 and in the experiment with SF-295 was > 10 µM (inactive) in each case. Besides, the GI50 with OVCAR-3, in the experiment on EKVX, in the experiment on OVCAR-4, with MDA-MB-435 and in the experiment with IGROV-1 was > 10 µM (inactive) in each case.

In the case of `COC(=O)C1C=CN(N(C)C)C2=C1C(=O)c1c(O)cccc1C2=O` (stereo unspecified), the GI50 (in general, the concentration giving 50% growth inhibition) in the experiment on SNB-75 was 1.66 µM (inactive); in the experiment with UACC-257 it was 1.41 µM (inactive); in the experiment on OVCAR-8 it was 2.67 µM (inactive); in the experiment with SNB-19, 2.34 µM (inactive); in the experiment on HCT-116, 1.92 µM (inactive); in the experiment with SW-620, 2.28 µM (inactive). The GI50 is 2.96 µM (inactive) with PC-3; 2.56 µM (inactive) in the experiment with MOLT-4; 2.31 µM (inactive) in the experiment on SK-MEL-2; 1.49 µM (inactive) with HT-29; 2.47 µM (inactive) in the experiment with A549; 3.29 µM (inactive) in the experiment on U-251. Further, the GI50 in the experiment with SF-295 was 1.65 µM (inactive); in the experiment on OVCAR-3, 0.625 µM (active); with EKVX, 2.79 µM (inactive); with OVCAR-4 it was 2.17 µM (inactive); in the experiment on MDA-MB-435, 0.429 µM (active); in the experiment with IGROV-1 it was 2.1 µM (inactive).

As to `Nc1nc(N)c2ncn(Cc3ccccc3)c2n1`, the GI50 is 0.0295 µM (active) with SNB-75; > 100 µM (inactive) with UACC-257; > 100 µM (inactive) in the experiment with OVCAR-8; > 100 µM (inactive) in the experiment on SNB-19; > 100 µM (inactive) in the experiment on HCT-116; > 100 µM (inactive) with SW-620. The GI50 in the experiment with PC-3, in the experiment with MOLT-4, with SK-MEL-2, with HT-29, with A549 and in the experiment on U-251 was > 100 µM (inactive) each time. For the same compound, the GI50 in the experiment with SF-295 is > 100 µM (inactive); with OVCAR-3, > 100 µM (inactive); in the experiment with EKVX it was 21.8 µM (inactive); with OVCAR-4, > 100 µM (inactive); in the experiment on MDA-MB-435, > 100 µM (inactive); in the experiment with IGROV-1 it was > 100 µM (inactive).

With `CC(=O)OC[C@@]12CC[C@H]3C(C)(C)CCC[C@]3(C)[C@H]1C[C@@H](C1=CC(=O)O[C@H]1O)O2`, the GI50 in the experiment with SNB-75 is 3.74 µM (inactive); with UACC-257, 2.12 µM (inactive); in the experiment with OVCAR-8 it was 3.18 µM (inactive); with SNB-19, 16.7 µM (inactive); in the experiment with HCT-116 it was 2.84 µM (inactive); in the experiment on SW-620 it was 4.81 µM (inactive). The GI50 with PC-3 was 5.43 µM (inactive); in the experiment with MOLT-4, 1.36 µM (inactive); in the experiment with SK-MEL-2 it was 2.15 µM (inactive); with HT-29 it was 2.52 µM (inactive); in the experiment with A549, 6.97 µM (inactive); with SF-295, 8.67 µM (inactive). Moreover, the GI50 is 2.1 µM (inactive) with OVCAR-3; 11.7 µM (inactive) in the experiment on EKVX; 1.34 µM (inactive) with LOX IMVI; 2.13 µM (inactive) with MDA-MB-435; 2.55 µM (inactive) in the experiment with IGROV-1.

Consider `C=CC(O)(CBr)CCC(Br)C(C)(C)Cl` (stereo unspecified), for which the GI50 in the experiment on SNB-75, in the experiment with UACC-257, in the experiment on OVCAR-8, in the experiment with SNB-19, in the experiment on HCT-116 and in the experiment with SW-620 was > 10 µM (inactive) each time. The GI50 in the experiment on PC-3, with MOLT-4, in the experiment with SK-MEL-2, in the experiment with HT-29, with A549 and in the experiment on U-251 was > 10 µM (inactive) each time. The GI50 with SF-295, in the experiment on OVCAR-3, in the experiment with EKVX, in the experiment on OVCAR-4, in the experiment with MDA-MB-435 and in the experiment on IGROV-1 was > 10 µM (inactive) throughout.

As to `COc1ccc(N[S+]([O-])c2ccc(Cl)cc2)cc1` (stereo unspecified), the GI50 was 17.9 µM (inactive) in the experiment on UACC-257; 73.3 µM (inactive) in the experiment on OVCAR-8; 93.1 µM (inactive) in the experiment with SNB-19; 14.5 µM (inactive) in the experiment on HCT-116; 49.1 µM (inactive) in the experiment on SW-620; 38.5 µM (inactive) in the experiment on HL-60. Further, the GI50 with MOLT-4 is 20.6 µM (inactive); in the experiment on SK-MEL-2, 24.5 µM (inactive); in the experiment on HT-29 it was 37.7 µM (inactive); in the experiment on A549 it was 23.5 µM (inactive); with U-251 it was 11.8 µM (inactive); in the experiment with SF-295, 45.8 µM (inactive). Moreover, the GI50 in the experiment with OVCAR-3 was 90.4 µM (inactive); in the experiment on EKVX it was 55.2 µM (inactive); in the experiment on OVCAR-4 it was > 100 µM (inactive); in the experiment with LOX IMVI, 31 µM (inactive); with MDA-MB-435 it was 14.8 µM (inactive); in the experiment on IGROV-1, 10.5 µM (inactive).

Take `O=C(CCCc1cccc2[nH]c3c(c12)CN(Cc1ccccc1)CC3)c1ccc(F)cc1`: the GI50 in the experiment with SNB-75 was > 62.7 µM (inactive); in the experiment on UACC-257, 2.61 µM (inactive); in the experiment with OVCAR-8 it was > 100 µM (inactive); in the experiment with SNB-19, > 100 µM (inactive); in the experiment with HCT-116, 18.7 µM (inactive); in the experiment on SW-620 it was 83.2 µM (inactive). The GI50 was > 43.6 µM (inactive) in the experiment on PC-3; 15.3 µM (inactive) with MOLT-4; > 100 µM (inactive) in the experiment on SK-MEL-2; 4.39 µM (inactive) in the experiment on HT-29; > 95.9 µM (inactive) with A549; 49.4 µM (inactive) with U-251. In addition, the GI50 in the experiment with SF-295 was > 100 µM (inactive); in the experiment with OVCAR-3, > 100 µM (inactive); with EKVX it was > 100 µM (inactive); in the experiment on OVCAR-4, > 67 µM (inactive); in the experiment with LOX IMVI, 7.85 µM (inactive); with MDA-MB-435, 40.6 µM (inactive). Besides, the GI50 in the experiment on IGROV-1 is > 100 µM (inactive).

As for `N#Cc1c(-c2ccc([N+](=O)[O-])cc2)c(C#N)c(=O)n(NS(=O)(=O)c2ccccc2)c1S`, the GI50 was 39.6 µM (inactive) with SNB-75; 99.8 µM (inactive) in the experiment with UACC-257; 33.2 µM (inactive) with OVCAR-8; 44.2 µM (inactive) with SNB-19; 19.4 µM (inactive) with HCT-116; 22.1 µM (inactive) in the experiment on SW-620. In addition, the GI50 with PC-3 was 28.8 µM (inactive); in the experiment on MOLT-4, 17.5 µM (inactive); with SK-MEL-2, 19.2 µM (inactive); in the experiment with HT-29 it was 36.3 µM (inactive); in the experiment on A549, 39.9 µM (inactive); in the experiment on U-251, 41.3 µM (inactive). Besides, the GI50 was 44.8 µM (inactive) in the experiment with SF-295; 31.3 µM (inactive) with EKVX; > 100 µM (inactive) in the experiment on OVCAR-4; 18.4 µM (inactive) with LOX IMVI; 38.5 µM (inactive) with MDA-MB-435; 19.2 µM (inactive) with IGROV-1.

`COC1=C(OC)C(=O)C(Cc2c(C)nc3sccn23)=C(C)C1=O`: the GI50 in the experiment on UACC-257 is 5.65 µM (inactive); in the experiment with OVCAR-8, 14.9 µM (inactive); with SNB-19 it was 16 µM (inactive); with HCT-116, 19.3 µM (inactive); with SW-620, 14.8 µM (inactive); with PC-3 it was 16.3 µM (inactive). In addition, the GI50 in the experiment with MOLT-4 was 2.01 µM (inactive); in the experiment with SK-MEL-2, 16.6 µM (inactive); in the experiment on HT-29, 16.4 µM (inactive); with A549 it was 11 µM (inactive); with U-251, 15.6 µM (inactive); with SF-295 it was 15 µM (inactive). Besides, the GI50 in the experiment on OVCAR-3 was 15 µM (inactive); in the experiment on EKVX, 14.1 µM (inactive); in the experiment on OVCAR-4, 2.92 µM (inactive); with LOX IMVI, 11.7 µM (inactive); with MDA-MB-435, 13.6 µM (inactive); with IGROV-1, 22.4 µM (inactive).

Regarding `Cc1cc2ccccc2n2c1nc1ccccc12`, the GI50 with SNB-75, in the experiment on UACC-257, in the experiment with OVCAR-8, with SNB-19, with HCT-116 and in the experiment on SW-620 was > 100 µM (inactive) each time. The GI50 in the experiment on PC-3, in the experiment with HL-60, in the experiment with MOLT-4, in the experiment with HT-29, with A549 and with U-251 was > 100 µM (inactive) in each case. Also, the GI50 in the experiment with SF-295, with OVCAR-3, in the experiment with EKVX, in the experiment with MDA-MB-435 and in the experiment on IGROV-1 was > 100 µM (inactive) throughout.

Turning to `O=C(CCc1ccc(O)cc1)NCCCNC(=O)CCc1ccc(O)cc1`, the GI50 was 24.7 µM (inactive) with SNB-75; > 100 µM (inactive) with UACC-257; > 100 µM (inactive) with OVCAR-8; > 100 µM (inactive) in the experiment with SNB-19; > 100 µM (inactive) with HCT-116; > 100 µM (inactive) in the experiment with SW-620. Also, the GI50 in the experiment on PC-3, in the experiment on MOLT-4, with SK-MEL-2, in the experiment with HT-29, in the experiment on A549 and in the experiment on U-251 was > 100 µM (inactive) in each case. In addition, the GI50 with SF-295, with OVCAR-3, in the experiment on OVCAR-4, with LOX IMVI, in the experiment with MDA-MB-435 and with IGROV-1 was > 100 µM (inactive) in each case.
